According to patent US6020345A, “Pyridin-2-yl-methylamine derivatives, method of preparing and application as medicine” (Pierre Fabre Medicament, priority 1996, dated 2000):
Read-outs that look alike come from different tables or passages of the source.

What was measured:
[1] = target: T1, 5-HT1A receptors (Rattus norvegicus, UniProt P19327); assay: In vitro affinity for the 5-HT1A receptors by displacement of (^3 H)8-OH-DPAT; assay type: binding; parameters: rat cerebral cortices are used; from tissue; host or cells: rat cerebral cortex; conditions: for 5-HT1A /D2 Selectivity: ratio of affinity constants (Ki) D2 /(Ki) 5-HT1A; for affinity for the 5-HT1A receptors (in words): in vitro; for pKi 5-HT1A: mean of at least 3 experiments, rat cerebral cortex, (^3 H)8-OH-DPAT
T1 sequence (P19327 1-422): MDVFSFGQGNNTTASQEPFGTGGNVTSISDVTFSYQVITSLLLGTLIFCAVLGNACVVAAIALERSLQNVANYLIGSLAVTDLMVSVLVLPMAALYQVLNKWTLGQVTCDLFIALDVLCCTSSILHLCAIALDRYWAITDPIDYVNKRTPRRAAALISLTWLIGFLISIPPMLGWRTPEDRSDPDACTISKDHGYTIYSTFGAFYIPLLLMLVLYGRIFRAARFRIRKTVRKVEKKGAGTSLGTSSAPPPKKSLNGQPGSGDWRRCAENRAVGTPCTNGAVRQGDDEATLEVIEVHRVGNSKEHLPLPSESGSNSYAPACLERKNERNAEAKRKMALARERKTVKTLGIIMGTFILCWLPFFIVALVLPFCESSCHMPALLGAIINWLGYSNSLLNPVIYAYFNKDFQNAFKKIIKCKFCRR
Method: 1-Measurement of the affinity of the compounds of the invention for the 5-HT1A receptors
The study of binding to the 5-HT1A receptor was carried out as described by Sleight and Peroutka (Naunyn-Schmiedeberg's Arch. Pharmaco. 1991, 343, 106-16). For these experiments, rat cerebral cortices are used. After thawing the brain in 50 mmol Tris-HCl buffer, pH=7.40 at 25° C., the cerebral cortex is removed and homogenized in 20 volumes of buffer maintained at 4° C. The homogenate is centrifuged at 39,000 g for 10 minutes, the centrifugation pellet is suspended in the same volume of buffer and again centrifuged. After suspending again under the same conditions, the homogenate is incubated for 10 minutes at 37° C. and then centrifuged again. The final pellet is suspended in cold 50 mmol Tris-HCl reaction buffer, pH=7.40 at 25° C. containing 10 mmol of pargyline, 4 mmol of CaCl2 and 0.10% of ascorbic acid. The final concentration of tissue in the incubation medium is 10 mg/tube.
Nonspecific binding is defined using 10 mmol of 5-HT. The reaction tubes are incubated at 23° C. for 30 minutes and then their content is rapidly filtered under vacuum on Whatman GF/B filters, the tubes are rinsed twice with 5 ml of 50 mmol Tris-HCl buffer, pH=7.4 at 25° C. The radioactivity collected on the filter is analyzed by liquid scintillation by adding 4 ml of scintillation fluid (Emulsifier Safe, Packard). All the experiments are carried out in triplicate.
(§1) The inhibition constants (Ki) of the products of the invention are estimated from displacement experiments using the nonlinear regression program RADLIG version 4 from EBDA (Equilibrium Binding Data Analysis) (Biosoft, Cambridge, UK, McPherson, 1985). […] The pKi (-logKi) values are given in the form of the mean ±SEM of at least 3 experiments.

[2] = target: T2, D2 dopaminergic receptors (Rattus norvegicus, UniProt P61169); assay: In vitro affinity for the D2 dopaminergic receptors by displacement of (^3 H) YM-09151-2; assay type: binding
T2 construct: rat striatum is used; from tissue; host or cells: rat striatum
Method: 2-Measurement of the affinity of the compounds of the invention for the D2 receptors
The in vitro affinity of the compounds of the invention for the D2 dopaminergic receptors was determined by measuring the displacement of (^3 H) YM-09151-2 (NET-1004 70-87 Ci/mmol). The study of binding to the D2 receptor is carried out as described by Niznik (Naunyn-Schmiedeberg's Arch. Pharmacol. Methods, 1985, 329, 333-38). For these experiments, rat striatum is used. After thawing the brain in 50 mmol Tris-HCl buffer, pH=7.40 at 25° C., the striatum is collected and homogenized in 40 volumes of buffer maintained at 4° C. The homogenate is centrifuged at 20,000 g for 10 minutes, the centrifugation pellet is suspended in the same volume of buffer and again centrifuged. The final pellet is suspended in cold 50 mmol Tris-HCl reaction buffer, pH=7.40 at 25° C. containing 120 mmol of NaCl and 5 mmol of KCl. The final concentration of tissue in the incubation medium is 2 mg/tube. The reaction tubes contain 0.20 ml of [^3 H]YM-09151-2 (0.05 mmol final), 0.20 ml of product to be tested 6-7 concentrations and 1.60 ml of tissue. Nonspecific binding is defined using 1 mmol of (+)-Butaclamol. The reaction tubes are incubated at 23° C. for 60 minutes and then their content is rapidly filtered under vacuum on Whatman GF/B filters, the tubes are rinsed twice with 5 ml of 50 mmol Tris-HCl buffer, pH=7.40 at 25° C. The radioactivity collected on the filter is analyzed by liquid scintillation by adding 4 ml of scintillation fluid (Emulsifier Safe, Packard). All the experiments are carried out in triplicate.
as §1

[3] = target: T1, 5-HT1A receptors; assay: In vivo 5-HT1A agonist activity: lower lip retraction (LLR) in rats after oral administration; parameters: Sprague Dawley male rats; from tissue; host or cells: whole animal, Sprague Dawley male rats (central nervous system); species or system rat (Sprague Dawley male); conditions: 1 h
Description: 3-Evaluation of the agonist activity of the 5-HT1A receptors of the compounds of the invention in vivo
Sprague Dawley male rats (ICO: OFAD [IOPS], Iffa Credo, France) weighing 160-180 g on their arrival and 180-200 g at the beginning of the tests are used. The animals are quarantined for 4 to 8 days with free access to standard laboratory food before their use in the experiments. Animals are housed individually in plastic cages on a support, (28 cm×21 cm×18 cm) with a floor having a wire mesh covering (RC Iffa Credo), 24 hours before the tests. Water filtered on 0.22 μm is available ad libitum by means of an automatic dispenser. The quarantine area and the experimentation laboratory are air-conditioned (temperature: 22±1° C.; relative humidity: 55±5%) and illuminated from 07:00 to 19:00. All the rats are treated in accordance with laboratory animal ethics (Guide for the Care and Use of Laboratory Animals, U.S. Department of Agriculture. Public Health Service. National Institutes of Health publication No. 85-23, Revised 1985), and the protocol (No. 15) is carried out in accordance with the recommendations of the local ethics committee on animal research.
The methods used are essentially identical to those described previously (Drug. Dev. Res. 1992, 26, 21-48; Eur. J. Pharmacol. 1995, 281, 219-28).
The behavior of the animal is observed for a period of 10 minutes each, centred on t60 minutes, after administration by the oral route. Four animals are observed individually during the 10 minute period (from t55 to t65); the 4 rats are observed in turn, every 15 seconds, duration of observation 10 seconds per animal. During each of these observation periods, the presence (1) or absence (0) of lower lip retraction (LLR) in the animal is noted. […] This cycle is repeated 10 times over a period of 10 minutes; thus, the frequency of a behavior may vary from 0 to 10 for each observation period. Each day, two animals from each group receive the same dose of the same product.
The products are dissolved in distilled water or suspended in an aqueous solution of Tween 80 (2 drops/10 ml of distilled water). The products are administered in a volume of 10 ml/kg and the doses are expressed in basal weight. The order of administration of the products and of the doses is randomized.

[4] = mean of at least 3 experiments, rat striatum, (^3 H)YM-09151-2, read-out: pKi D2 (converted)
[5] = read-out: LLR p.o (60 minutes) ED50, oral, observed t55 to t65 minutes
[6] = po, read-out: LLR p.o (60 minutes) ED50
[7] = mean of at least 3 experiments, rat striatum, (^3 H)YM-09151-2

T2 sequence (P61169 whole entry): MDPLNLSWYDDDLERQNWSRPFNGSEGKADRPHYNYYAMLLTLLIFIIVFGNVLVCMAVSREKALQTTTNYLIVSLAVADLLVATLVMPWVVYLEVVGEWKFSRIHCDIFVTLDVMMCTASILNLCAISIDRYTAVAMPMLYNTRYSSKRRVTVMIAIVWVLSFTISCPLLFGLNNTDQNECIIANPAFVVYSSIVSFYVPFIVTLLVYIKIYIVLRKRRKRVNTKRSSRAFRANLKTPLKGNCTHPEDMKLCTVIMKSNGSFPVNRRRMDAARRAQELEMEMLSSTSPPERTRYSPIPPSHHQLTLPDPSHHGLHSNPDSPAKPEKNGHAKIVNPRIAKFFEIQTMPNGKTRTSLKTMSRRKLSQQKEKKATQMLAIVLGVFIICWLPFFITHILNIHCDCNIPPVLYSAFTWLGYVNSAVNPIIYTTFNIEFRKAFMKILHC

SMILES | 5-HT1A /D2 Selectivity [1] | Ki ([1]; read-out: pKi 5-HT1A (converted)) [µM] | Ki [2, 4] [µM] | ED50 [3, 5] [mg/kg] | pKi 5-HT1A [1] | pKi D2 [2, 7] | affinity for the 5-HT1A receptors (in words) [1] | Ki [2] [µM] | ED50 [3, 6] [mg/kg]
O=C(c1ccc(F)c(Cl)c1)N1CCC(F)(CNCc2cccc(N3CCC3)n2)CC1 [I-56] | 7414 | 0.000138 | 1.02 | 0.08 | – | – | – | – | –
O=C1CC2(CCCC2)CC(=O)N1CCCCN1CCN(c2ncccn2)CC1 [Buspirone, reference compound] | – | – | – | 20 | – | – | high affinity for the 5-HT1A receptors | – | –
CNc1nc(CNCC2(F)CCN(C(=O)c3ccc(F)c(Cl)c3)CC2)ccc1C [I-55, (3-chloro-4-fluoro-phenyl)-(4-fluoro-4-{[(5-methyl-6-methylaminopyridin-2-ylmethyl)amino]-methyl}piperidin-1-yl)methanone] | 16982 | – | – | – | 10.12 | – | – | 1.29 | 0.08
O=C(c1ccc(F)c(Cl)c1)N1CCC(F)(CNCc2cccc(-c3cc[nH]n3)n2)CC1 [I-62] | 16594 | – | 7.59 | 0.31 | 9.34 | – | – | – | –
CCCN(CCC)C1CCc2cccc(O)c2C1 (stereo not shown) [8-OH-DPAT, 7-dipropylamino-5,6,7,8-tetrahydronaphthalen-1-ol, reference compound] | – | – | – | – | – | 6.26 | high affinity for the 5-HT1A receptors | – | 5
O=C(c1ccc(F)c(Cl)c1)N1CCC(F)(CNCc2cccc(-c3ccco3)n2)CC1 [I-32, (3-chloro-4-fluorophenyl)-(4-fluoro-4-{[(6-furan-2-yl-pyridin-2-yl-methyl)amino]methyl}-piperidin-1-yl)methanone] | 7942 | – | – | 0.31 | 9.55 | 5.65 | – | – | –
Cc1ccc(CNCC2(F)CCN(C(=O)c3ccc(F)c(Cl)c3)CC2)nc1N(C)C [I-61, (3-chloro-4-fluoro-phenyl)-(4-fluoro-4-{[(5-methyl-6-dimethylaminopyridin-2-yl-methyl)amino]-methyl}piperidin-1-yl)methanone] | 1906 | – | 0.603 | 0.08 | 9.50 | – | – | – | –

Continued, in another order:

5-HT1A /D2 Selectivity [1] | Ki ([1]; read-out: pKi 5-HT1A (converted)) [µM] | Ki [2, 4] [µM] | ED50 [3, 5] [mg/kg] | pKi 5-HT1A [1] | pKi D2 [2, 7] | SMILES | affinity for the 5-HT1A receptors (in words) [1] | Ki [2] [µM] | ED50 [3, 6] [mg/kg]
> 10000 | – | > 10 | 0.31 | 9.24 | – | Cc1ccc(CNCC2(F)CCN(C(=O)c3ccc(Cl)c(Cl)c3)CC2)nc1 [I-65] | – | – | –
1259 | – | 0.234 | 0.31 | 9.73 | – | CCNc1cccc(CNCC2(F)CCN(C(=O)c3ccc(F)c(Cl)c3)CC2)n1 [I-58] | – | – | –
1862 | – | – | 0.31 | 9.67 | 6.40 | CNc1cccc(CNCC2(F)CCN(C(=O)c3ccc(Cl)c(Cl)c3)CC2)n1 [I-11] | – | – | –
2291 | – | – | 0.31 | 9.92 | 6.56 | CN(C)c1cccc(CNCC2(F)CCN(C(=O)c3ccc(F)c(Cl)c3)CC2)n1 [I-13, (3-chloro-4-fluoro-phenyl)-(4-fluoro-4-{[(6-dimethylaminopyridin-2-yl-methyl)amino]methyl}-piperidin-1-yl)methanone] | – | – | –
1349 | – | – | 0.31 | 9.61 | 6.48 | CN(C)c1cccc(CNCC2(F)CCN(C(=O)c3ccc(Cl)c(Cl)c3)CC2)n1 [I-14, (3,4-dichlorophenyl)-(4-fluoro-4-{[(6-dimethylaminopyridin-2-yl-methyl)amino]methyl}piperidin-1-yl)-methanone] | – | – | –
5011 | – | 1.02 | 0.31 | 9.69 | – | CNc1cccc(CNCC2(F)CCN(C(=O)c3ccc(F)c(Cl)c3)CC2)n1 [I-59] | – | – | –
